{"source": "ChEMBL document CHEMBL1201862", "about": "“PubChem BioAssay data set” (2004)", "key": {"[1]": {"tested_on": "HeLa", "assay": "Cytotoxicity counterscreen assay for transcriptional activators of heat shock protein 70 (Hsp70). [Related pubchem assays: 1203, 1252 ]", "format": "functional", "conditions": "Homo sapiens"}, "[2]": {"biological_target": "T1, RNA-binding protein pos-1 (Caenorhabditis elegans, UniProt G5EF15)", "T1 sequence (G5EF15 whole entry)": "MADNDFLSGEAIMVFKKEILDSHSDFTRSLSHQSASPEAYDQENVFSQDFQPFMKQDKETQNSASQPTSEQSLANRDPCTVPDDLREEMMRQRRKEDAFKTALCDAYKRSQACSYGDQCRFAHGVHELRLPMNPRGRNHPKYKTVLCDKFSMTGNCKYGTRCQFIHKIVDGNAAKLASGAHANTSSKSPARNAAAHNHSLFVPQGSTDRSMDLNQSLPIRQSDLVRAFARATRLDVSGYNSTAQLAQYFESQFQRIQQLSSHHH", "assay": "inhibitors of POS-1/mex-3 RNA binding, dose response, biochemical, fluorescence polarization (AID 1964);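 further: purified POS-1 fused to maltose binding protein made in E. coli; potency of compounds blocking POS-1 binding to fluorescent RNA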"}, "[3]": {"biological_target": "T2, Zinc finger protein mex-5 (Caenorhabditis elegans, UniProt Q9XUB2)", "T2 sequence (Q9XUB2 whole entry)": "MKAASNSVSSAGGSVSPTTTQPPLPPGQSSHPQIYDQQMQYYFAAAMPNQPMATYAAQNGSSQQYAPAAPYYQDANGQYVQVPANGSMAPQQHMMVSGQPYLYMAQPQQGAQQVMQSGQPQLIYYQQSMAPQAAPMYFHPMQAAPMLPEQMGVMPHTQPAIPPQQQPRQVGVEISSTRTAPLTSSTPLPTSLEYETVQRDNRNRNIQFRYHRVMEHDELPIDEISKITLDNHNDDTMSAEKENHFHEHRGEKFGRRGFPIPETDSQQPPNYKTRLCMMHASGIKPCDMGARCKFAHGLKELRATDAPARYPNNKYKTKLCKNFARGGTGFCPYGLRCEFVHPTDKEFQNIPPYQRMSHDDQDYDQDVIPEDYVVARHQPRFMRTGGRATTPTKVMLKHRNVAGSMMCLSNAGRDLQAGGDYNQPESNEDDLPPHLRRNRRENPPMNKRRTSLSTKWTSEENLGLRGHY", "assay": "MEX-5/TCR-2 RNA interaction inhibitors, dose response, biochemical, C. elegans, fluorescence polarization (AID 1960)"}, "[4]": {"biological_target": "Procathepsin L (Homo sapiens, UniProt P07711)", "sequence (P07711 whole entry)": "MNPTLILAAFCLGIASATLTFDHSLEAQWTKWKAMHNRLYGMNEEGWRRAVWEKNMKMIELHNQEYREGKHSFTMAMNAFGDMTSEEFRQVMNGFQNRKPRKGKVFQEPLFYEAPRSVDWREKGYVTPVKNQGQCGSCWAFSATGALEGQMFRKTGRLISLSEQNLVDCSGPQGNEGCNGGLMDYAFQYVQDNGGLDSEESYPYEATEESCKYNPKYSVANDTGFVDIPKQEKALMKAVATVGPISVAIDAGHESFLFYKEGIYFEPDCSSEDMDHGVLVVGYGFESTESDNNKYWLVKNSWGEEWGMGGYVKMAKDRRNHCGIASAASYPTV", "assay": "cathepsin L inhibitors, dose response, counter-screen for M1/M17 aminopeptidase inhibitor project, biochemical, QFRET, 1536-well (AID 2214)"}, "[5]": {"biological_target": "Aspartyl aminopeptidase (Plasmodium falciparum 3D7, UniProt Q8I2J3)", "sequence (Q8I2J3 whole entry)": "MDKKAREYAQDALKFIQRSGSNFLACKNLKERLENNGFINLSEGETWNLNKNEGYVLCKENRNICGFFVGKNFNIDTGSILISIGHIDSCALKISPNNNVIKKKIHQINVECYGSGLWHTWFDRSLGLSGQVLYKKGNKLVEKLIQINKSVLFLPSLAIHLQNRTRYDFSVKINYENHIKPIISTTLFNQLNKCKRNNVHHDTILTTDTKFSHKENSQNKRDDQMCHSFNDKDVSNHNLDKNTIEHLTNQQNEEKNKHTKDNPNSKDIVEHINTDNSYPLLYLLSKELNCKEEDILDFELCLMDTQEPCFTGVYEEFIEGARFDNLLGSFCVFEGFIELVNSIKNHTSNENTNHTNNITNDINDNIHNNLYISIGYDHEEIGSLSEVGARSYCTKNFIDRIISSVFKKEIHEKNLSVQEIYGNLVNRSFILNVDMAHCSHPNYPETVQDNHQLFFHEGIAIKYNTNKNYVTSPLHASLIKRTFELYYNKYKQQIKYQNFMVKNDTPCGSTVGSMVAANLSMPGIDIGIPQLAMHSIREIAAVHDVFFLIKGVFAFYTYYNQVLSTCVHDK", "assay": "Counterscreen for inhibitors of M1 and M17 aminopeptidases: QFRET-based biochemical high throughput dose response assay for inhibitors of the Plasmodium falciparum M18 Aspartyl Aminopeptidase (PFM18AAP). [Related PubChem assays: 1619 (Screening assay (M17LAP inhibitors).), 1445 (Screening assay (M1AAP inhibitors).)]"}, "[6]": {"biological_target": "T3, Aminopeptidase N (Plasmodium falciparum FcB1/Columbia, UniProt O96935)", "T3 sequence (O96935 whole entry)": "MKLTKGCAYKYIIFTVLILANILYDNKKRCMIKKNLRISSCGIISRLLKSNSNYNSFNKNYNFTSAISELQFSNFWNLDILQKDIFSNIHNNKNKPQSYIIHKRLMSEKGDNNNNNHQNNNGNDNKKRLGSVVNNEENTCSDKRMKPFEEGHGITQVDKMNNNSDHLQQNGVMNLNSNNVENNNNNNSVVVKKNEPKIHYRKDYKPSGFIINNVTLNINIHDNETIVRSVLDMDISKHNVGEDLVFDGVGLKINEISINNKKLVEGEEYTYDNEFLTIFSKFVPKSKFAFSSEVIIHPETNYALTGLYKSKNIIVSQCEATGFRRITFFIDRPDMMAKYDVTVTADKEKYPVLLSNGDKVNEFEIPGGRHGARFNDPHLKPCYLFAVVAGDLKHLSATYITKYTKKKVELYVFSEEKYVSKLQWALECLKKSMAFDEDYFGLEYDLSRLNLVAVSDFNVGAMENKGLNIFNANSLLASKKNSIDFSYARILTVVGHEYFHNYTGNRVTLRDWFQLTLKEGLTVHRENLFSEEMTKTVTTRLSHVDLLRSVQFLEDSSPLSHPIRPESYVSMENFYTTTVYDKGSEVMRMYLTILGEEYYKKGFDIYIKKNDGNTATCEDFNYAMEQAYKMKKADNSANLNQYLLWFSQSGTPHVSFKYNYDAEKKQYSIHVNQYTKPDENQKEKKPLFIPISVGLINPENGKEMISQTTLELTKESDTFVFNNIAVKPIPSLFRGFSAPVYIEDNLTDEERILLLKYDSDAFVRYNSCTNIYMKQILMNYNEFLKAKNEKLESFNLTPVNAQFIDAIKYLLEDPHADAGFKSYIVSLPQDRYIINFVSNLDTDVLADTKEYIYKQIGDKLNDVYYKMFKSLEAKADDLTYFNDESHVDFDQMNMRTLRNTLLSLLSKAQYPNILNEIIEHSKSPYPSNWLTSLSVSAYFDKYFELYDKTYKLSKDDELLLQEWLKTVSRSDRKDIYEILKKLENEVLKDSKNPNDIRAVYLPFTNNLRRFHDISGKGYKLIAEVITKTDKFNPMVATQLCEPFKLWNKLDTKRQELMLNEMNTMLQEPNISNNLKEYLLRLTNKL", "assay": "P. falciparum M1AAP inhibitors, biochemical, fluorogenic H-Leu-NHMec substrate, 1536-well (AID 1445)", "design": "species or system Plasmodium falciparum 3D7, 3D7"}, "[7]": {"tested_on": "H9c2", "assay": "cells", "format": "functional, cell-based", "conditions": "Rattus norvegicus, H9c2, Myocardium"}, "[8]": {"biological_target": "Mucolipin-3 (Homo sapiens, UniProt Q8TDD5)", "sequence (Q8TDD5 whole entry)": "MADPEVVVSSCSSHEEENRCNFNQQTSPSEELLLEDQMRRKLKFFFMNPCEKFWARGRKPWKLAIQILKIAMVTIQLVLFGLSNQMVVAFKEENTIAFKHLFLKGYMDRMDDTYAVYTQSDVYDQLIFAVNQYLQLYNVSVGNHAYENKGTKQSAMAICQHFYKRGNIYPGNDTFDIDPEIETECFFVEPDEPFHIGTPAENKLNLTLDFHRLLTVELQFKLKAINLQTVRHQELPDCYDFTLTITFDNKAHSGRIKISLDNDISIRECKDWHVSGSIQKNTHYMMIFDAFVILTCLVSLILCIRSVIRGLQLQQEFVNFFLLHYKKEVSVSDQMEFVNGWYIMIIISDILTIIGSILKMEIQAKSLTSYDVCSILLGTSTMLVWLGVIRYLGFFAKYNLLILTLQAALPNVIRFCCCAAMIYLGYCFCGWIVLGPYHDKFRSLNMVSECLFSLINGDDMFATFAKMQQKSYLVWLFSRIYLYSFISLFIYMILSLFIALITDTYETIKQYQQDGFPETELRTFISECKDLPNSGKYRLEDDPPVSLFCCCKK", "assay": "Dose response cell-based high-throughput screening assay for agonists of the transient receptor potential channel ML3 (TRPML3). [Related pubchem assays: 1526, 1424, 1448 ]", "format": "functional"}, "[9]": {"biological_target": "Ion channel NompC (Danio rerio, UniProt Q7T1G6)", "sequence (Q7T1G6 whole entry)": "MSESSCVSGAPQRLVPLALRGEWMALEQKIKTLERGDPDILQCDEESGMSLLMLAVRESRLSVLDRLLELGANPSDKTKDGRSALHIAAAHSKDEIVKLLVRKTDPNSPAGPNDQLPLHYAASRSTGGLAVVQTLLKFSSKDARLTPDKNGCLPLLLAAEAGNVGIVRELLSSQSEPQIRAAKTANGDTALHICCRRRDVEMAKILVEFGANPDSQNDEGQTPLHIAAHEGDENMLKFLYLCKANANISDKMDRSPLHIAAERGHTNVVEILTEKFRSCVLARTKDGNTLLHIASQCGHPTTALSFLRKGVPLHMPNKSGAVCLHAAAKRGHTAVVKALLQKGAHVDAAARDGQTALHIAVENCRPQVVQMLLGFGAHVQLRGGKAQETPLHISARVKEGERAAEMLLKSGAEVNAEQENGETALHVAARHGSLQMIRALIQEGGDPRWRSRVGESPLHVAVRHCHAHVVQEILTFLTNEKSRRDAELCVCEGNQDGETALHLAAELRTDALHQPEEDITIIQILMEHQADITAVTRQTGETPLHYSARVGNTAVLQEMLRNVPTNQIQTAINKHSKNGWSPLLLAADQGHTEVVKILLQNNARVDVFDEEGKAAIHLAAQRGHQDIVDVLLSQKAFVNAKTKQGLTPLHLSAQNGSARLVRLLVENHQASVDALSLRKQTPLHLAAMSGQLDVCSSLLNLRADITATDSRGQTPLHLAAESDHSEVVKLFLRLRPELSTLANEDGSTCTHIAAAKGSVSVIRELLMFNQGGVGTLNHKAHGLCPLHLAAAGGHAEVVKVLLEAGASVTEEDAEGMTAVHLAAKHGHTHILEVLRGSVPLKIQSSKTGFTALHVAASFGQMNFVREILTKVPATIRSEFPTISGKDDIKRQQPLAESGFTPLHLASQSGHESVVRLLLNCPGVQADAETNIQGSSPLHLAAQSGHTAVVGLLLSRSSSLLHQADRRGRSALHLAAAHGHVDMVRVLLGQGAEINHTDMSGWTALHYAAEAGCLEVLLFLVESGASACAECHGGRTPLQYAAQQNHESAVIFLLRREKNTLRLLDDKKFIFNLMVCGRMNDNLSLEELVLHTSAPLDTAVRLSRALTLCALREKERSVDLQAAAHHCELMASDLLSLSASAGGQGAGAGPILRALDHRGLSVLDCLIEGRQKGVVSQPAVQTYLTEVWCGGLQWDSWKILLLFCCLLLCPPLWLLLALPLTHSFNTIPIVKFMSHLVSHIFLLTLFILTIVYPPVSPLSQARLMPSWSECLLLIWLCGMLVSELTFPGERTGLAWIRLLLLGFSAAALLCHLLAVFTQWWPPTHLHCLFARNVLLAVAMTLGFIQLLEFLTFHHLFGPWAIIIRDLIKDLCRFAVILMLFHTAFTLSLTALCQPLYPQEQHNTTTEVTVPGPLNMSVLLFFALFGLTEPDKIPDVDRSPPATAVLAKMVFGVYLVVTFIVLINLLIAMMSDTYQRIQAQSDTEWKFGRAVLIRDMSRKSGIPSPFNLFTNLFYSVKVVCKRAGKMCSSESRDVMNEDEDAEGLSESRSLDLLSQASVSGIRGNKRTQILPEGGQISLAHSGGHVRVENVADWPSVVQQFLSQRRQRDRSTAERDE", "assay": "Fluorescence counterscreen assay for TRPML3 agonists: dose response cell-based high-throughput screening assay to identify agonists of the transient receptor potential channel N1 (TRPN1). [Related pubchem assays: 1526, 1424, 1448 ]", "format": "functional"}, "[10]": {"tested_on": "Vero", "assay": "host cell cytotoxicity of antiviral hits, dose response, cytotoxicity control for West Nile virus antiviral project, secondary assay (AID 1650)", "format": "functional", "conditions": "Chlorocebus sabaeus"}, "[11]": {"assay": "NIH-3T3 fibroblast cytotoxicity, dose response, cytotoxicity control, cell-based, fluorescence, Alamar Blue, secondary assay (AID 2327);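 further: NIH-3T3 mouse fibroblasts cultured with fluconazole at 8 µg/mL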", "format": "functional"}, "[12]": {"assay": "THP-1 cell cytotoxicity, dose response, cytotoxicity control for non-replicating M. tuberculosis project (AID 489025)", "format": "functional"}, "[13]": {"assay": "C. albicans growth with fluconazole, confirmation, fluorescence, retest (AID 2467)", "format": "functional, cell-based"}, "[14]": {"assay": "HepG2 cell cytotoxicity, dose response, cytotoxicity control for non-replicating M. tuberculosis project (AID 489018)", "format": "functional", "conditions": "Mycobacterium tuberculosis"}, "[15]": {"assay": "cells", "format": "functional, cell-based"}, "[16]": {"assay": "Vero E6 cell cytotoxicity, dose response, cytotoxicity control for non-replicating M. tuberculosis project, secondary assay (AID 492998)", "format": "functional, VeroE6", "conditions": "Vero C1008"}, "[17]": {"tested_on": "INS1", "assay": "beta cell apoptosis inhibitors, cytokine rescue, dose response, luminescence, retest (AID 449756);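 further: cell death triggered by IL-1 beta plus TNF-alpha plus IFN-gamma mixture; protective hits raise ATP signal compared with cytokine alone wells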", "format": "functional, cell-based", "conditions": "Rattus norvegicus"}, "[18]": {"assay": "cells", "format": "functional, cell-based", "remark": "listed apart in the source"}, "[19]": {"assay": "cells", "format": "functional"}}, "note": "Calls of active or inactive are those of the source."}
{"smiles": "COc1ccc(C(CNC(=O)c2cc3ccccc3o2)N2CCCCC2)cc1", "note": "(centres undefined)", "values": [{"measurement": "CC50", "setting": "[1]", "value": "> 99 µM (not active)"}]}
{"smiles": "O=C(NCc1cccs1)C1CCN(S(=O)(=O)c2ccc(Br)s2)CC1", "values": [{"measurement": "EC50", "setting": "[2]", "value": "> 300 µM (not active)"}, {"measurement": "EC50", "setting": "[3]", "value": "> 300 µM (not active)"}, {"measurement": "IC50", "setting": "[4]", "value": "> 59.6 µM (not active)"}, {"measurement": "IC50", "setting": "[5]", "value": "> 73.5 µM (not active)"}, {"measurement": "IC50", "setting": "[6]", "value": "4.67 µM (active)"}]}
{"smiles": "CSc1nsc(SC)c1C(=O)N1CCN(S(=O)(=O)c2ccc(C)cc2)C1C(C)C", "note": "(centres undefined)", "values": [{"measurement": "IC50", "setting": "[7]", "value": "> 79 µM (inactive)"}, {"measurement": "EC50", "setting": "[8]", "value": "10.5 µM (not active)"}, {"measurement": "EC50", "setting": "[9]", "value": "> 29.9 µM (not active)"}]}
{"smiles": "O=C(N/N=C(\\c1ccccc1)c1ccccn1)c1cccc([N+](=O)[O-])c1", "values": [{"measurement": "CC50", "setting": "[10]", "value": "1.73 µM (active)"}, {"measurement": "EC50", "setting": "[11]", "value": "155 µM (inconclusive)"}, {"measurement": "CC50", "setting": "[12]", "value": "0.394 µM (active)"}, {"measurement": "EC50", "setting": "[13]", "value": "3.75 µM (active)"}, {"measurement": "CC50", "setting": "[14]", "value": "6.88 µM (active)"}, {"measurement": "EC50", "setting": "[15]", "value": "4.64 µM (active)"}, {"measurement": "CC50", "setting": "[16]", "value": "1.61 µM (active)"}, {"measurement": "AC50", "setting": "[17]", "value": "0.535 µM (active)"}, {"measurement": "EC50", "setting": "[18]", "value": "> 350 µM (not active)"}, {"measurement": "IC50", "setting": "[19]", "value": "1.06 µM (active)"}]}
